Results: patent US12495798B2, “Nicotinamide compound and herbicidal composition comprising compound” (KOREA RESEARCH INSTITUTE OF CHEMICAL TECHNOLOGY, priority 2019, dated 2025)

Assays:
Format in all cases: in vivo
indian jointvetch [1] = assay: Herbicidal activity test against upland field weeds (soil treatment test); parameters: key to Soil treatment herbicidal activity, Indian jointvetch: 0 (no control); 100 (complete control); conditions: 50 g ai/ha, scale 0 (no control) to 100 (complete control)
Procedure, shortened: (§1)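 Weed control scored visually on a 0 (none) to 100 (complete) scale versus untreated pots at 14 or 21 days in greenhouse (30±5 °C, 14 h light). Test compounds, 50 or 75 g a.i./ha in 50% acetone/0.1% Tween-20, hand-sprayed onto soil one day post-sowing.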

cocklebur [2] = assay: as above; parameters: key to Soil treatment herbicidal activity, Cocklebur: 0 (no control); 100 (complete control); conditions: 50 g ai/ha, scale 0 (no control) to 100 (complete control)
Procedure, shortened: as §1

black nightshade [3] = assay: Herbicidal activity test against upland field weeds (foliar treatment test); parameters: key to Foliar treatment herbicidal activity, black nightshade: 0 (no control); 100 (complete control); conditions: 50 g ai/ha, scale 0-100; for pest or weed control at 50 g/ha: Solanum nigrum
Procedure, shortened: (§2)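 Visual 0–100 control ratings relative to untreated plants, taken 14 (or 21) days after spraying foliage at 50 or 75 g a.i./ha. Spray solution: 50% acetone with 0.1% Tween-20; plants kept in greenhouse at 30±5 °C, 14 h light/10 h dark.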

bindweed [4] = assay: as above; parameters: key to Foliar treatment herbicidal activity, Bindweed: 0 (no control); 100 (complete control); conditions: 50 g ai/ha, scale 0-100
Procedure, shortened: as §2

velvetleaf [5] = assay: as above; conditions: Abutilon theophrasti, 50 g ai/ha, scale 0-100, read-out: Foliar treatment herbicidal activity, velvet leaf
Procedure, shortened: as §2

cocklebur [6] = assay: as above; parameters: key to Foliar treatment herbicidal activity, Cocklebur: 0 (no control); 100 (complete control); conditions: 50 g ai/ha, scale 0-100; for pest or weed control at 50 g/ha: Xanthium strumarium
Procedure, shortened: as §2

indian jointvetch [7] = assay: as above; parameters: key to Foliar treatment herbicidal activity, Indian jointvetch: 0 (no control); 100 (complete control); conditions: 50 g ai/ha, scale 0-100
Procedure, shortened: as §2

black nightshade [8] = assay: Herbicidal activity test against upland field weeds (soil treatment test); parameters: key to Soil treatment herbicidal activity, black nightshade: 0 (no control); 100 (complete control); conditions: 50 g ai/ha, scale 0 (no control) to 100 (complete control); for pest or weed control at 50 g/ha: Solanum nigrum
Procedure, shortened: as §1

crabgrass [9] = assay: as above; parameters: key to Soil treatment herbicidal activity, Crabgrass: 0 (no control); 100 (complete control); conditions: 50 g ai/ha, scale 0 (no control) to 100 (complete control); for pest or weed control at 50 g/ha: Digitaria sanguinalis
Procedure, shortened: as §1

fall panicum [10] = assay: as above; parameters: key to Soil treatment herbicidal activity, Fall panicum: 0 (no control); 100 (complete control); conditions: 50 g ai/ha, scale 0 (no control) to 100 (complete control); for pest or weed control at 50 g/ha: Panicum dichotomiflorum
Procedure, shortened: as §1

fall panicum [11] = assay: Herbicidal activity test against upland field weeds (foliar treatment test); parameters: key to Foliar treatment herbicidal activity, Fall panicum: 0 (no control); 100 (complete control); conditions: 50 g ai/ha, scale 0-100; for pest or weed control at 50 g/ha: Panicum dichotomiflorum
Procedure, shortened: as §2

bindweed [12] = assay: Herbicidal activity test against upland field weeds (soil treatment test); parameters: key to Soil treatment herbicidal activity, Bindweed: 0 (no control); 100 (complete control); conditions: 50 g ai/ha, scale 0 (no control) to 100 (complete control)
Procedure, shortened: as §1

barnyard grass [13] = assay: Herbicidal activity test against upland field weeds (foliar treatment test); parameters: key to Foliar treatment herbicidal activity, barnyard grass: 0 (no control); 100 (complete control); conditions: 50 g ai/ha, scale 0-100; for pest or weed control at 50 g/ha: Echinochloa crus-galli
Procedure, shortened: as §2

quack grass [14] = assay: as above; parameters: key to Foliar treatment herbicidal activity, quack grass: 0 (no control); 100 (complete control); conditions: 50 g ai/ha, scale 0-100
Procedure, shortened: as §2

sorghum [15] = assay: as above; parameters: key to Foliar treatment herbicidal activity, Sorghum: 0 (no control); 100 (complete control); conditions: 50 g ai/ha, scale 0-100
Procedure, shortened: as §2

quack grass [16] = assay: Herbicidal activity test against upland field weeds (soil treatment test); parameters: key to Soil treatment herbicidal activity, quack grass: 0 (no control); 100 (complete control); conditions: 50 g ai/ha, scale 0 (no control) to 100 (complete control)
Procedure, shortened: as §1

velvetleaf [17] = assay: as above; parameters: key to Soil treatment herbicidal activity, velvet leaf: 0 (no control); 100 (complete control); conditions: 50 g ai/ha, scale 0 (no control) to 100 (complete control)
Procedure, shortened: as §1

sorghum [18] = assay: as above; parameters: key to Soil treatment herbicidal activity, Sorghum: 0 (no control); 100 (complete control); conditions: 50 g ai/ha, scale 0 (no control) to 100 (complete control)
Procedure, shortened: as §1

barnyard grass [19] = assay: as above; parameters: key to Soil treatment herbicidal activity, barnyard grass: 0 (no control); 100 (complete control); conditions: 50 g ai/ha, scale 0 (no control) to 100 (complete control)
Procedure, shortened: as §1

crabgrass [20] = assay: Herbicidal activity test against upland field weeds (foliar treatment test); parameters: key to Foliar treatment herbicidal activity, Crabgrass: 0 (no control); 100 (complete control); conditions: 50 g ai/ha, scale 0-100; for pest or weed control at 50 g/ha: Digitaria sanguinalis
Procedure, shortened: as §2

Compound	Soil treatment herbicidal activity, Indian jointvetch (indian jointvetch [1])	Soil treatment herbicidal activity, Cocklebur (cocklebur [2])	pest or weed control at 50 g/ha (black nightshade [3])	pest or weed control at 50 g/ha (bindweed [4])	pest or weed control at 50 g/ha (velvetleaf [5])	pest or weed control at 50 g/ha (black nightshade [8])	Soil treatment herbicidal activity, Crabgrass (crabgrass [9])	Soil treatment herbicidal activity, Fall panicum (fall panicum [10])	Foliar treatment herbicidal activity, Fall panicum (fall panicum [11])	Foliar treatment herbicidal activity, barnyard grass (barnyard grass [13])	Foliar treatment herbicidal activity, quack grass (quack grass [14])	Foliar treatment herbicidal activity, Sorghum (sorghum [15])	Soil treatment herbicidal activity, quack grass (quack grass [16])	Soil treatment herbicidal activity, Sorghum (sorghum [18])	Soil treatment herbicidal activity, barnyard grass (barnyard grass [19])	pest or weed control at 50 g/ha (cocklebur [6])	pest or weed control at 50 g/ha (indian jointvetch [7])	Soil treatment herbicidal activity, Bindweed (bindweed [12])	Soil treatment herbicidal activity, velvet leaf (velvetleaf [17])	pest or weed control at 50 g/ha (crabgrass [20])	other results
C=Cc1cc(C(=O)Nc2nnnn2C)c(OCc2nnnn2C)nc1C(F)(F)F [Compound No. 1-18, N-(1-methyl-1H-tetrazol-5-yl)-2-((1-methyl-1H-tetrazol-5-yl)methoxy)-6-(trifluoromethyl)-5-vinylnicotinamide]	0	0	80%	20%	20%	80%	0	0	0	0	0	0	0	0	0	–	–	–	–	–	Foliar treatment herbicidal activity, Cocklebur (cocklebur [6]): 0; Foliar treatment herbicidal activity, Indian jointvetch (indian jointvetch [7]): 0; pest or weed control at 50 g/ha (bindweed [12]): 20%; pest or weed control at 50 g/ha (velvetleaf [17]; Abutilon theophrasti, read-out: Soil treatment herbicidal activity, velvet leaf): 20%; Foliar treatment herbicidal activity, Crabgrass (crabgrass [20]): 0
C#CCN(Cc1nnn(C)n1)c1nc(C(F)(F)F)ccc1C(=O)Nc1nnnn1C [Compound No. 2-28, N-(1-methyl-1H-tetrazol-5-yl)-2-(((2-methyl-2H-tetrazol-5-yl)methyl)(prop-2-yn-1-yl)amino)-6-(trifluoromethyl)nicotinamide]	–	0	90%	40%	40%	–	–	–	0	–	0	0	0	0	–	80%	40%	0	100	30%	pest or weed control at 50 g/ha (indian jointvetch [1]): 70%; Soil treatment herbicidal activity, black nightshade (black nightshade [8]): 100; pest or weed control at 50 g/ha (crabgrass [9]): 90%; pest or weed control at 50 g/ha (fall panicum [10]): 70%; pest or weed control at 50 g/ha (barnyard grass [13]): 70%; pest or weed control at 50 g/ha (barnyard grass [19]; Echinochloa crus-galli): 70%
Cn1nnc(CSCc2nc(C(F)F)ccc2C(=O)N(C(=O)c2ccccc2)c2nnnn2C)n1 [Compound No. 2-112, N-benzoyl-6-(difluoromethyl)-N-(1-methyl-1H-tetrazol-5-yl)-2-((((2-methyl-2H-tetrazol-5-yl)methyl)thio)methyl)nicotinamide]	100	0	–	98%	90%	90%	0	0	–	100	0	–	0	0	0	98%	95%	0	100	90%	Foliar treatment herbicidal activity, black nightshade (black nightshade [3]): 100; pest or weed control at 50 g/ha (fall panicum [11]): 70%; plant injury at 50 g/ha (sorghum [15]; Sorghum): 50%
CCON(Cc1nnn(C)n1)c1nc(C(F)(F)F)ccc1C(=O)Nc1nnnn1C [Compound No. 2-31, 2-(ethoxy((2-methyl-2H-tetrazol-5-yl)methyl)amino)-N-(1-methyl-1H-tetrazol-5-yl)-6-(trifluoromethyl)nicotinamide]	–	–	–	–	70%	–	–	–	–	–	0	0	0	0	100	70%	40%	0	100	60%	pest or weed control at 50 g/ha (indian jointvetch [1]): 98%; pest or weed control at 50 g/ha (cocklebur [2]; Xanthium strumarium): 30%; Foliar treatment herbicidal activity, black nightshade (black nightshade [3]): 100; Foliar treatment herbicidal activity, Bindweed (bindweed [4]): 0; Soil treatment herbicidal activity, black nightshade (black nightshade [8]): 100; pest or weed control at 50 g/ha (crabgrass [9]): 98%; pest or weed control at 50 g/ha (fall panicum [10]): 95%; pest or weed control at 50 g/ha (fall panicum [11]): 40%; pest or weed control at 50 g/ha (barnyard grass [13]): 90%
